According to patent publication US20250115600A1, “COVALENT MODIFIERS OF AKT1 AND USES THEREOF” (Terremoto Biosciences, Inc., priority 2022, published 2025):

Key:
AKT1 WT [1] = target: T1, AKT1 WT (Homo sapiens (Human), UniProt P31749); test: Live cell target engagement (NanoBRET) in HEK293 cells; assay type: cell-based; details: HEK293, 2 hours at 37° C.
Target sequence in this assay (P31749 whole entry): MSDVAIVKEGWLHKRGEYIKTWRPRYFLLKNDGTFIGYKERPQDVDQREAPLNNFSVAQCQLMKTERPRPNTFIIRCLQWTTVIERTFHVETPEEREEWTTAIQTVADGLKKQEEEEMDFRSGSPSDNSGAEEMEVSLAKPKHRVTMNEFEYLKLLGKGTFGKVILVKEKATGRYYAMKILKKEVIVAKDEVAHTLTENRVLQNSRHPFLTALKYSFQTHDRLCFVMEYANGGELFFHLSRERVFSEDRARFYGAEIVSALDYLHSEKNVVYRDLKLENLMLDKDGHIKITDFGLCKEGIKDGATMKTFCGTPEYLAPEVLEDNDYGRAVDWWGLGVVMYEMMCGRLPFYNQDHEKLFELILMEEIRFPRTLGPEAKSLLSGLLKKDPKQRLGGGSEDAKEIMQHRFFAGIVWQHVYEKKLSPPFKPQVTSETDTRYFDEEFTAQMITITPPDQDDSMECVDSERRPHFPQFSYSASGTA

AKT2 = AKT2 (Homo sapiens (Human), UniProt P31751); test: as above; assay type: cell-based; details: HEK293, 2 hours at 37° C.
AKT1 E17K = AKT1 E17K (Homo sapiens (Human), UniProt P31749, E17K); test: as above; assay type: cell-based; details: for IC50: HEK293, 2 hours at 37° C.
Sequence of AKT1 E17K (P31749 whole entry E17K): as the sequence (P31749 whole entry) above, with E17K counted along it

AKT1 E17K mutant protein = AKT1 E17K mutant protein (Homo sapiens (Human), UniProt P31749, E17K); test: Intact mass spectrometry, covalent complex formation and ARQ-092 competition; assay type: binding; details: for covalent complex formation with AKT1 E17K mutant protein / covalent complex formation with AKT1 E17K mutant protein in presence of competitor: protein 1 μM, compound 1.5 μM, 2 hrs at 37° C., NaBH4 reduction; for covalent complex formation with AKT1 E17K mutant protein: absence of competitor; for covalent complex formation with AKT1 E17K mutant protein in presence of competitor: with ARQ092 (50 μM); for selectivity of complex formation, AKT1 E17K versus AKT1 WT: comparison of the spectra without competitor
Sequence of AKT1 E17K mutant protein (P31749 2-480 E17K): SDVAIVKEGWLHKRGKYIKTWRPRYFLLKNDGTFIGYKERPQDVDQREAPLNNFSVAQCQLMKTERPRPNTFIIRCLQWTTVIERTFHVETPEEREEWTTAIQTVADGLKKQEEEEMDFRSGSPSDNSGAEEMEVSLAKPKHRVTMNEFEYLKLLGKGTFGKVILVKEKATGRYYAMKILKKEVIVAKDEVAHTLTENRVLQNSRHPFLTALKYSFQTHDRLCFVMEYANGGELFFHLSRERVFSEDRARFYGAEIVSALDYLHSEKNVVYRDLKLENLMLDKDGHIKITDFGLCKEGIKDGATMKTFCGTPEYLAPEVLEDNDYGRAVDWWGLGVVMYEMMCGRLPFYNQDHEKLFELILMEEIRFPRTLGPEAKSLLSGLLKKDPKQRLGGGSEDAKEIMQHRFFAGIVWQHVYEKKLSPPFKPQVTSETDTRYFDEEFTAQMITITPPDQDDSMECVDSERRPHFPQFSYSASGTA
Description: (§1) AKT1 WT or AKT1 E17K (1 μM) was treated with a compound from Table 1 (1.5 μM) for 2 hrs at 37° C., with and without ARQ092 (50 μM) competitor as a specificity control. Reversible imines were captured by reductive amination with 5 mM NaBH4 for 5 min. Reduction reactions were quenched by diluting the sample in equal volume acetonitrile+1% TFA, then analyzed by LCMS.
(§2) FIGS. 1 to 25 provide intact mass spectra for AKT1 WT protein and AKT1 E17K mutant protein after incubation with compounds of the present disclosure and subsequent borohydride reduction. […] Further, FIGS. 1 to 10, 12, and 14 to 25 each provide intact mass spectra following the incubation of an AKT1 protein with a compound of the present disclosure both in the absence of a competitor molecule (i.e., ARQ-092, a molecule known to bind to and inhibit the function of AKT1); and in the presence of a significant stoichiometric excess of a competitor molecule.

AKT1 WT [2] = target: T1, AKT1 WT; test: as above; assay type: binding; details: protein 1 μM, compound 1.5 μM, 2 hrs at 37° C., NaBH4 reduction; for covalent complex formation with AKT1 WT protein: absence of competitor; for covalent complex formation with AKT1 WT protein in presence of competitor: with ARQ092 (50 μM)
Description: as §1, §2
Target sequence in this assay (P31749 2-480): as the sequence (P31749 2-480 E17K) above, with K16E counted along it

Sequence of AKT2 (P31751 whole entry): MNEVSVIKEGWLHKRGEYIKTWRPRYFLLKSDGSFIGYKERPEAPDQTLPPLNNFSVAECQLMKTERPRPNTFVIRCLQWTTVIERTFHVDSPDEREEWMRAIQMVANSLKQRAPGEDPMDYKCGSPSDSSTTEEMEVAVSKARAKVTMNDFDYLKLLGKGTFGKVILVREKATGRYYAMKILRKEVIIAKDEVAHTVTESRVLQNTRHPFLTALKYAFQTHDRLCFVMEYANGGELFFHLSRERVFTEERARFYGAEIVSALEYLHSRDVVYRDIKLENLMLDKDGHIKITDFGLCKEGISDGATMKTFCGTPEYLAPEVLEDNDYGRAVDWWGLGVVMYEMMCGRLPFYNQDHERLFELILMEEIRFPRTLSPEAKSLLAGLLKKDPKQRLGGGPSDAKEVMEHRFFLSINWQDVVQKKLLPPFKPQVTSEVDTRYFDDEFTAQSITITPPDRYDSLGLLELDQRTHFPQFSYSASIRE

SMILES | IC50 (AKT1 WT [1]) [nM] | IC50 (AKT2) [nM] | AKT1 E17K IC50: Selectivity vs AKT1 WT (AKT1 E17K) | AKT1 E17K IC50: Selectivity vs AKT2 (AKT1 E17K) | IC50 (AKT1 E17K) [nM] | covalent complex formation with AKT1 E17K mutant protein (AKT1 E17K mutant protein) | covalent complex formation with AKT1 E17K mutant protein in presence of competitor (AKT1 E17K mutant protein) | covalent complex formation with AKT1 WT protein (AKT1 WT [2]) | covalent complex formation with AKT1 WT protein in presence of competitor (AKT1 WT [2]) | selectivity of complex formation, AKT1 E17K versus AKT1 WT (AKT1 E17K mutant protein)
Nc1ncccc1-c1nc2ccc(N3CCOCC3)nc2n1-c1ccc(CNC(=O)Cc2ccc(C=O)c(O)c2)cc1 [Compound 49, N-({4-[2-(2-aminopyridin-3-yl)-5-(morpholin-4-yl)imidazo[4,5-b]pyridin-3-yl]phenyl}methyl)-2-(4-formyl-3-hydroxyphenyl)acetamide] | < 100 | > 500 | 20 | 1500 | < 100 | significant presence of a covalent complex | Essentially little to no covalent complex formation | significant presence of covalent complex | Essentially no covalent complex formation | –
Nc1ncccc1-c1nc2ccc(-c3ccccc3)nc2n1-c1ccc(CNC(=O)c2cc(Cl)c(O)c(C=O)c2)cc1 [Compound 52, N-(4-(2-(2-aminopyridin-3-yl)-5-phenyl-3H-imidazo[4,5-b]pyridin-3-yl)benzyl)-3-chloro-5-formyl-4-hydroxybenzamide] | < 100 | 100 to 500 | 1.2 | 11 | < 100 | presence of a covalent complex | Essentially no covalent complex formation | only peaks corresponding to unmodified WT protein | only peaks corresponding to unmodified WT protein | selective for complex formation with AKT1 E17K
Nc1ncccc1-c1nc2ccc(-c3ccccc3)nc2n1-c1ccc(CNC(=O)c2cc(F)c(O)c(C=O)c2)cc1 [Compound 53, N-({4-[2-(2-aminopyridin-3-yl)-5-phenylimidazo[4,5-b]pyridin-3-yl]phenyl}methyl)-3-fluoro-5-formyl-4-hydroxybenzamide] | < 100 | 100 to 500 | 2.7 | 48 | < 100 | presence of a covalent complex | Essentially no covalent complex formation | only peaks corresponding to unmodified WT protein | only peaks corresponding to unmodified WT protein | selective for complex formation with AKT1 E17K
Nc1ncccc1-c1nc2ccc(-c3ccccc3)nc2n1-c1ccc(CNC(=O)C2(c3cnc(C=O)c(O)c3)CC2)cc1 [Compound 56, N-({4-[2-(2-aminopyridin-3-yl)-5-phenylimidazo[4,5-b]pyridin-3-yl]phenyl}methyl)-1-(6-formyl-5-hydroxypyridin-3-yl)cyclopropane-1-carboxamide] | > 500 | > 500 | 93 | 490 | < 100 | small presence of a covalent complex | Essentially no covalent complex formation | presence of a covalent complex | Essentially no covalent complex formation | –
Nc1ncccc1-c1nc2ccc(-c3ccccc3)nc2n1-c1ccc(CC(=O)NCc2ccc(C=O)c(O)c2)cc1 [Compound 58, 2-{4-[2-(2-aminopyridin-3-yl)-5-phenylimidazo[4,5-b]pyridin-3-yl]phenyl}-N-[(4-formyl-3-hydroxyphenyl)methyl]acetamide] | < 100 | > 500 | 8.6 | 410 | < 100 | significant presence of a covalent complex | Essentially no covalent complex formation | presence of a covalent complex | Essentially no covalent complex formation | –
Nc1ncccc1-c1nc2ccc(-c3ccccc3)nc2n1-c1ccc(CCNCc2ccc(C=O)c(O)c2)cc1 [Compound 72, 4-{[(2-{4-[2-(2-aminopyridin-3-yl)-5-phenylimidazo[4,5-b]pyridin-3-yl]phenyl}ethyl)amino]methyl}-2-hydroxybenzaldehyde] | < 100 | < 100 | 1.7 | 18 | < 100 | significant presence of a covalent complex | significantly smaller level of covalent complex formation | significant presence of a covalent complex | Essentially no covalent complex formation | –
Nc1ncccc1-c1nc2ccc(-c3ccccc3)nc2n1-c1ccc(CNC(=O)Cc2ccc(C=O)c(O)n2)cc1 [Compound 75, N-(4-(2-(2-aminopyridin-3-yl)-5-phenyl-3H-imidazo[4,5-b]pyridin-3-yl)benzyl)-2-(5-formyl-6-hydroxypyridin-2-yl)acetamide] | 100 to 500 | > 500 | 1.7 | 3.7 | 100 to 500 | only peaks corresponding to unmodified WT/mutant protein | – | only peaks corresponding to unmodified WT/mutant protein | – | –
Nc1ncccc1-c1nc2ccc(C3CC3)nc2n1-c1ccc(CNCCc2ccc(C=O)c(O)c2)cc1 [Example 16, 4-{2-[({4-[2-(2-aminopyridin-3-yl)-5-cyclopropylimidazo[4,5-b]pyridin-3-yl]phenyl}methyl)amino]ethyl}-2-hydroxybenzaldehyde] | 100 to 500 | > 500 | 2.4 | 41 | < 100 | – | – | – | – | –
CC(C)(O)c1ccc2nc(-c3cccnc3N)n(-c3ccc(CNC(=O)Cc4ccc(C=O)c(O)c4)cc3)c2n1 [Example 17, N-({4-[2-(2-aminopyridin-3-yl)-5-(2-hydroxypropan-2-yl)imidazo[4,5-b]pyridin-3-yl]phenyl}methyl)-2-(4-formyl-3-hydroxyphenyl)acetamide] | > 500 | > 500 | 10 | >110 | < 100 | – | – | – | – | –
CC1(c2ccc3nc(-c4cccnc4N)n(-c4ccc(CNC(=O)Cc5ccc(C=O)c(O)c5)cc4)c3n2)CC1 [Example 18, N-({4-[2-(2-aminopyridin-3-yl)-5-(1-methylcyclopropyl)imidazo[4,5-b]pyridin 3-yl]phenyl}methyl)-2-(4-formyl-3-hydroxyphenyl)acetamide] | 100 to 500 | > 500 | 6.1 | 150 | < 100 | – | – | – | – | –
Nc1ncccc1-c1nc2ccc(-c3cccc(N4CCOCC4)c3)nc2n1-c1ccc(CCNCc2ccc(C=O)c(O)c2)cc1 [Example 19, 4-(((4-(2-(2-aminopyridin-3-yl)-5-(3-morpholinophenyl)-3H-imidazo[4,5-b]pyridin-3-yl)phenethyl)amino)methyl)-2-hydroxybenzaldehyde] | < 100 | < 100 | 1.7 | 4.9 | < 100 | – | – | – | – | –
Nc1ncccc1-c1nc2ccc(C3CC3)nc2n1-c1ccc(CNC(=O)Cc2ccc(C=O)c(O)c2Cl)cc1 [Example 22, N-({4-[2-(2-aminopyridin-3-yl)-5-cyclopropylimidazo[4,5-b]pyridin-3-yl]phenyl}methyl)-2-(2-chloro-4-formyl-3-hydroxyphenyl)acetamide] | < 100 | > 500 | 3.1 | 190 | < 100 | – | – | – | – | –
CC(C)c1ccc2nc(-c3cccnc3N)n(-c3ccc(CNC(=O)Cc4ccc(C=O)c(O)c4)cc3)c2n1 [Example 23, N-({4-[2-(2-aminopyridin-3-yl)-5-isopropylimidazo[4,5-b]pyridin-3-yl]phenyl}methyl)-2-(4-formyl-3-hydroxyphenyl)acetamide] | < 100 | > 500 | 4.8 | 270 | < 100 | – | – | – | – | –
